For one data set, the system named is MV4-11. Nature of the data set: Antiproliferative activity against human MV4-11 cells measured after 72 hrs by CCK-8 method. Type of data set: functional, cell-based. To be noted: MV4-11, 72 h.
Data set [1] concerns the target Protein cereblon/Eukaryotic peptide chain release factor GTP-binding subunit ERF3A (Homo sapiens) (UniProt Q96SW2+P15170). Briefly: PROTAC activity at CRBN/GSPT1 in human U-937 cells assessed as induction of GSPT1 degradation preincubated with MLN4924 for 2 hrs followed by compound addition and measured after 6 hrs by Western blot analysis. Type of data set: cell-based. A general note: A western blot detects proteins with antibodies after separation by electrophoresis.

For data set [2], the target named is Cereblon/Ikaros (Homo sapiens) (UniProt Q96SW2+Q13422). Briefly: PROTAC activity at CRBN/IKZF1 in human U-937 cells at upto 300 nM by Western blot analysis. Type of data set: cell-based.
The subject of data set [3] is U-937. Briefly: Induction of cell cycle arrest in human U-937 cells assessed as accumulation of cells at G0/G1 phase at 100 nM measured after 24 hrs by propidium iodide staining based flow cytometry analysis (reference value: 61.09%). Type of data set: functional.
Data set [4] concerns U-937. Briefly: Induction of cell cycle arrest in human U-937 cells assessed as accumulation of cells at S phase at 30 nM measured after 24 hrs by propidium iodide staining based flow cytometry analysis (reference value: 6.38%). Type of data set: functional. On the technique in general: In flow cytometry, cells or beads pass a laser one at a time.
For data set [5], the system named is U-937. Briefly: Induction of cell cycle arrest in human U-937 cells assessed as accumulation of cells at G2/M phase at 10 nM measured after 24 hrs by propidium iodide staining based flow cytometry analysis (reference value: 32.33%). Type of data set: functional.
In data set [6] the test system is U-937. Briefly: Induction of cell cycle arrest in human U-937 cells assessed as accumulation of cells at G2/M phase at 100 nM measured after 24 hrs by propidium iodide staining based flow cytometry analysis (reference value: 32.33%). Type of data set: functional.
Data set [7] deals with U-937. Briefly: Induction of apoptosis in human U-937 cells assessed as viable cells at 30 nM measured after 24 hr by Annexin V-FITC/7AAD staining based flow cytometry (reference value: 93.55%). Type of data set: functional. To be noted: read-out: Activity.
For data set [8], the system named is U-937. Briefly: Induction of apoptosis in human U-937 cells assessed as early apoptotic cells at 10 nM measured after 24 hr by Annexin V-FITC/7AAD staining based flow cytometry (reference value: 1.44%). Type of data set: functional.
For data set [9], the system named is U-937. Briefly: Induction of apoptosis in human U-937 cells assessed as late apoptotic cells at 30 nM measured after 24 hr by Annexin V-FITC/7AAD staining based flow cytometry (reference value: 1.49%). Type of data set: functional.
The test system of data set [10] is U-937. Briefly: Induction of apoptosis in human U-937 cells assessed as necrotic cells at 10 nM measured after 24 hr by Annexin V-FITC/7AAD staining based flow cytometry (reference value: 3.52%). Type of data set: functional.
Data set [11] relates to U-937. Nature of the data set: Upregulation of cleaved caspase-3 level in human U-937 cells measured after 24 hrs by Western blot analysis. Type of data set: functional, cell-based. To be noted: dose 10-100 nM.
Data set [12] deals with U-937. Nature of the data set: Upregulation of caspase-9 level in human U-937 cells measured after 24 hrs by Western blot analysis. To be noted: dose 10-100 nM. Type of data set: functional, cell-based.
A short description of data set [13]: Downregulation of K1C10 level in human U-937 cells assessed as fold change at 0.1 uM measured after 6 hrs. Type of data set: functional.
Data set [14] can be described thus: Downregulation of K2C1 level in human U-937 cells assessed as fold change at 0.1 uM measured after 6 hrs. Type of data set: functional.
The nature of data set [15]: Downregulation of AMPN level in human U-937 cells assessed as fold change at 0.1 uM measured after 6 hrs. Type of data set: functional.
Data set [16] is described as follows: Downregulation of SYIC level in human U-937 cells assessed as fold change at 0.1 uM measured after 6 hrs. Type of data set: functional.
Data set [17] can be described thus: Downregulation of SEC13 level in human U-937 cells assessed as fold change at 0.1 uM measured after 6 hrs. Type of data set: functional.
Data set [18] can be described thus: Downregulation of GSPT1 level in human U-937 cells assessed as fold change at 0.1 uM measured after 6 hrs. Type of data set: functional.
Data set [19] can be described thus: AUC (0 to t) in ip dosed Sprague-Dawley rat. Type of data set: ADME, organism-based. To be noted: in vivo.

One compound from ChEMBL document CHEMBL5620419, “Discovery of new Lenalidomide derivatives as potent and selective GSPT1 degraders” (Eur J Med Chem, 2023) can be followed below.

Calls of active or inactive are those of the source. No cut-off for these calls is given here.

Chain of Protein cereblon/Eukaryotic peptide chain release factor GTP-binding subunit ERF3A (Homo sapiens) (P15170 whole entry, looked up): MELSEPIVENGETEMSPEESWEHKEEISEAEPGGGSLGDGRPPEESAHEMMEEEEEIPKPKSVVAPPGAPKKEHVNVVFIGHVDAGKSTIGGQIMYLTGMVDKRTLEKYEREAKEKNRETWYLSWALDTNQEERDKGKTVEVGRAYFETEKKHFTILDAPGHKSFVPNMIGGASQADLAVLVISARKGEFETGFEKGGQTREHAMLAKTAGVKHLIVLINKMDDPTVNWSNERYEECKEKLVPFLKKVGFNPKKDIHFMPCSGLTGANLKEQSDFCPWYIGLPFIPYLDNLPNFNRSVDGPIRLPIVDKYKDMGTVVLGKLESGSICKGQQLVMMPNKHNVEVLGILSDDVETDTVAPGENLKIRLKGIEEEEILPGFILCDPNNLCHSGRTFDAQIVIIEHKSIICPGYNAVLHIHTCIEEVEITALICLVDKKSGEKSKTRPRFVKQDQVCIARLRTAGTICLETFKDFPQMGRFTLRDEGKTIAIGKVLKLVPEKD
Chain of Protein cereblon/Eukaryotic peptide chain release factor GTP-binding subunit ERF3A (Homo sapiens) (Q96SW2 whole entry, looked up): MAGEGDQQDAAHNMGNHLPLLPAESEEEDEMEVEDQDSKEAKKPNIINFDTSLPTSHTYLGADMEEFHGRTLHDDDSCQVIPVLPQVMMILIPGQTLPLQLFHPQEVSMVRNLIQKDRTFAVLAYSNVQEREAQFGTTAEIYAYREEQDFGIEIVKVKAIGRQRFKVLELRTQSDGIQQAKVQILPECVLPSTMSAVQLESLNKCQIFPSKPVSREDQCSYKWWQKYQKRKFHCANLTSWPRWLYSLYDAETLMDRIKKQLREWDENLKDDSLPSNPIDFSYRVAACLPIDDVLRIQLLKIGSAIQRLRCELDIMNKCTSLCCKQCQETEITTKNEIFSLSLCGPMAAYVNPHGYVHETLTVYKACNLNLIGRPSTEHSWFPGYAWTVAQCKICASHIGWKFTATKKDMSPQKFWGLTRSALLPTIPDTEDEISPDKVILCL

A word on the IC50: it is the concentration at which inhibition is half-maximal. A higher IC50 goes with weaker potency. The term AUC(0-t) denotes exposure summed from dosing to a finite time, without extrapolation to infinity. A higher AUC(0-t) goes with high exposure. `COCCN(C)Cc1cc(NC(=O)CCc2ccc3c(c2)C(=O)N(C2CCC(=O)NC2=O)C3)cc(Cl)c1C` (stereo not given) showed an IC50 in the data set on MV4-11 of 27 nM. Also, the outcome in [1] and in data set [2] was inactive. Further, the Activity is on record as 71.09% in the data set on U-937 [3]; 9.99% in the data set on U-937 [4]; 31.72% with U-937 [5]; 20.68% with U-937 [6]; 1.9% in the data set with U-937 [8]; 14.45% in the data set with U-937 [9]. Besides, the Activity in the data set on U-937 [10] is 2.73%; in the data set with U-937 [11], “Dose-Dependent Effect”; in the data set on U-937 [12], “Dose-Dependent Effect”. Further, in the data set with U-937 [7], the viability at 0.03 µM came to 65.5%. Besides, the “log(activity)” value is -9.04 in data set [13]; -5.03 in data set [14]; -3.63 in data set [15]; -3.32 in data set [16]; -3.32 in [17]; -3.32 in data set [18]. Also, in data set [19], the AUC(0-t) was determined as 8160 ng·h/mL.
